Calls of active or inactive are those of the source. The calls are words filed in the database; no cut-off is given here.
How the values were obtained:
[1] = biological target: T1, Polyunsaturated fatty acid 5-lipoxygenase (Homo sapiens) (UniProt P09917); experiment: Inhibition of 5-LOX in human Neutrophil assessed as enzyme remaining activity at 10 uM preincubated with compound for 15 mins followed by A23187 addition measured after 10 mins by RP-HPLC analysis relative to control; format: cell-based; details: time 25.0 min
T1 sequence (whole entry): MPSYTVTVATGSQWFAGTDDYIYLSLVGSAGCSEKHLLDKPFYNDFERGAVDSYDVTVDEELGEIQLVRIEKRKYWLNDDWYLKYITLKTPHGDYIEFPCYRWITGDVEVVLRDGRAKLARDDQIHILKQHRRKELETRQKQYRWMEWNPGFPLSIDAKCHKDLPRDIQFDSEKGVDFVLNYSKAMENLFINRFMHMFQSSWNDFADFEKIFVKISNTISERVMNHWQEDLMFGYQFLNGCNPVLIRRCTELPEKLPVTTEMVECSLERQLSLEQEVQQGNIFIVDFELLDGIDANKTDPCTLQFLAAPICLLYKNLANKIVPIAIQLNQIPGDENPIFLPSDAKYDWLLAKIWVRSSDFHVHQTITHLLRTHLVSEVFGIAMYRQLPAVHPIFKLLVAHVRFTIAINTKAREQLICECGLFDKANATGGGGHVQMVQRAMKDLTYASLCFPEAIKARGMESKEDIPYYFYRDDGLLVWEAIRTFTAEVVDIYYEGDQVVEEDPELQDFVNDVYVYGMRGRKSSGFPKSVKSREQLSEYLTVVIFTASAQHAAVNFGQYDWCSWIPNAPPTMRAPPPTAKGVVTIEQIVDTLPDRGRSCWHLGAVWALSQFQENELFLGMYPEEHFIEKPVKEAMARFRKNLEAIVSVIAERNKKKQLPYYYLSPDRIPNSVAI

[2] = biological target: T1, Polyunsaturated fatty acid 5-lipoxygenase (Homo sapiens); experiment: Inhibition of 5-LOX in human Neutrophil at 10 uM preincubated with compound for 15 mins followed by A23187 addition measured after 10 mins by RP-HPLC analysis relative to control; format: cell-based; details: time 25.0 min
[3] = biological target: T2, Prostaglandin E synthase (Homo sapiens) (UniProt O14684); experiment: Inhibition of human mPGES-1 at 10 uM relative to control
T2 sequence (whole entry): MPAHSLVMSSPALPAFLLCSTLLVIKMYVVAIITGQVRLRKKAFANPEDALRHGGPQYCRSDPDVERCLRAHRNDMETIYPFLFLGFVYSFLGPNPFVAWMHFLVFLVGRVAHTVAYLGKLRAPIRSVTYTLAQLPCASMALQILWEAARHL

[4] = biological target: T1, Polyunsaturated fatty acid 5-lipoxygenase (Homo sapiens); experiment: Inhibition of 5-LOX in human Neutrophil at 10 uM using arachidonic acid as substrate preincubated with compound for 15 mins followed by substrate and A23187 addition measured after 10 mins by RP-HPLC analysis relative to control; format: cell-based; details: time 25.0 min
[5] = biological target: T2, Prostaglandin E synthase (Homo sapiens); experiment: Inhibition of human mPGES-1 assessed as enzyme remaining activity at 10 uM relative to control
[6] = biological target: T3, Bifunctional epoxide hydrolase 2 (Homo sapiens) (UniProt P34913); experiment: Inhibition of human sEH at 10 uM relative to control
T3 sequence (whole entry): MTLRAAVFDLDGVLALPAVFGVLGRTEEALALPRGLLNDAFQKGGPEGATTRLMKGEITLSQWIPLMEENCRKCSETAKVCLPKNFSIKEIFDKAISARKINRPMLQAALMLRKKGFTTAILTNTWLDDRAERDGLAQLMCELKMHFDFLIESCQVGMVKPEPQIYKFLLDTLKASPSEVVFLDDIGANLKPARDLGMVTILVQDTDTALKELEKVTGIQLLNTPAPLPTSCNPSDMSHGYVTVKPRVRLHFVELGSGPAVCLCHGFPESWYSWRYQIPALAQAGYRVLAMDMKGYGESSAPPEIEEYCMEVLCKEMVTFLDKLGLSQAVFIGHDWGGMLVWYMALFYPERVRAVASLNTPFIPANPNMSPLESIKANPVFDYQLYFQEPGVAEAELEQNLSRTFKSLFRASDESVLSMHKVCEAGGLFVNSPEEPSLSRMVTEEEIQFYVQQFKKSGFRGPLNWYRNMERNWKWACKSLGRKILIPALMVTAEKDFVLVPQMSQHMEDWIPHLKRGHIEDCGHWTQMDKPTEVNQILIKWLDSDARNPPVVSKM

[7] = biological target: T1, Polyunsaturated fatty acid 5-lipoxygenase (Homo sapiens); experiment: (§1) Inhibition of 5-LOX in human Neutrophil assessed as enzyme remaining activity at 10 uM using arachidonic acid as substrate preincubated with compound for 15 mins followed by substrate and A23187 addition measured after 10 mins by RP-HPLC analysis relative to control; format: cell-based; details: time 25.0 min
[8] = biological target: T3, Bifunctional epoxide hydrolase 2 (Homo sapiens); experiment: Inhibition of human sEH assessed as enzyme remaining activity at 10 uM relative to control
[9] = biological target: T1, Polyunsaturated fatty acid 5-lipoxygenase (Homo sapiens); experiment: as §1, with “of human recombinant” for “of”, “5-LOX expressed” for “5-LOX”, “Escherichia coli BL21(DE3)” for “human Neutrophil”, “CaCl2” for “A23187”; details: time 25.0 min
Neutrophil [10] = experiment: Inhibition of ROS production in PMA-induced human Neutrophil cells at 10 uM incubated for 10 mins by DCFH-DA dye based fluorometric assay; format: functional, cell-based
[11] = biological target: T4, Polyunsaturated fatty acid 5-lipoxygenase (Homo sapiens, UniProt P09917); experiment: Inhibition of human recombinant 5-LOX expressed in Escherichia coli BL21(DE3) using arachidonic acid as substrate preincubated with compound for 15 mins followed by substrate and CaCl2 addition measured after 10 mins by RP-HPLC analysis
T4 sequence (P09917 whole entry): T1 sequence (whole entry)

[12] = Antioxidant activity assessed as DPPH radical scavenging activity at 10 uM incubated for 30 min by DPPH assay; format: functional
[13] = Antioxidant activity assessed as DPPH radical scavenging activity at 1 uM incubated for 30 min by DPPH assay; format: functional
[14] = biological target: T4, Polyunsaturated fatty acid 5-lipoxygenase; experiment: Inhibition of 5-LOX in human Neutrophil using arachidonic acid as substrate preincubated with compound for 15 mins followed by substrate and A23187 addition measured after 10 mins by RP-HPLC analysis; format: cell-based
Neutrophil [15] = experiment: Inhibition of ROS production in PMA-induced human Neutrophil cells at 1 uM incubated for 10 mins by DCFH-DA dye based fluorometric assay; format: functional, cell-based
[16] = biological target: T1, Polyunsaturated fatty acid 5-lipoxygenase (Homo sapiens); experiment: Inhibition of 5-LOX in human Neutrophil assessed as enzyme remaining activity at 30 nM using arachidonic acid as substrate preincubated with compound for 15 mins followed by substrate and A23187 addition measured after 10 mins by RP-HPLC analysis relative to control; format: cell-based; details: time 25.0 min
[17] = biological target: T1, Polyunsaturated fatty acid 5-lipoxygenase (Homo sapiens); experiment: Inhibition of 5-LOX in human Neutrophil assessed as enzyme remaining activity at 30 nM preincubated with compound for 15 mins followed by A23187 addition measured after 10 mins by RP-HPLC analysis relative to control; format: cell-based; details: time 25.0 min

| SMILES | Activity [1] [%] | inhibition [2] | inhibition [3] | inhibition [4] | Activity [5] [%] | inhibition [6] [%] | Activity [7] [%] | Activity [8] [%] | Activity [9] [%] | inhibition (Neutrophil [10]) | IC50 [11] [µM] | Activity [12] | Activity [13] | IC50 [14] [µM] | inhibition (Neutrophil [15]) | Activity [16] [%] | Activity [17] [%] |
| --- | --- | --- | --- | --- | --- | --- | --- | --- | --- | --- | --- | --- | --- | --- | --- | --- | --- |
| N=C1OC(c2c[nH]c3ccc(OCc4ccccc4)cc23)C(O)=C1O (configuration not stated) | 56.1 | 37% | < 40% | inactive | 56.8 | > 35 | 92.3 | 86.7 | 95 | – | – | – | – | – | – | – | – |
| Oc1nc(Cc2ccc3ccccc3n2)cc(-c2ccccc2)n1 | 53.9 | 37% | inactive | inactive | 55.8 | > 35 | 111 | 91.6 | 68.1 | – | – | – | – | – | – | – | – |
| Nc1nc(N)c2cc([S+]([O-])c3ccc4ccccc4c3)ccc2n1 (configuration not stated) | 62 | 37% | inactive | inactive | 88.3 | > 35 | 82.1 | 93.9 | 94.6 | – | – | – | – | – | – | – | – |
| O=C1NC(=O)C(CCC(=O)c2ccc3ccccc3c2)C(=O)N1 | 63.3 | 37% | inactive | inactive | 77.5 | > 35 | 94.8 | 83.3 | 86.1 | – | – | – | – | – | – | – | – |
| COC(=O)c1ccc(NCc2cc(O)c3ccccc3c2O)cc1 | 3.3 | > 50% | < 40% | > 50% | 50.4 | > 35 | 1.9 | 84.4 | 6.1 | Active | 1.1 | Active | inactive | 1 | inactive | – | – |
| CC(C)c1ccc2c(c1)c(SC(C)(C)C)c(CC(C)(C)C(=O)O)n2Cc1ccc(Cl)cc1 | – | – | – | – | 45.8 | – | – | – | – | – | – | – | – | – | – | 7.8 | 1.5 |
| O=C1Nc2ccccc2/C1=N\CCc1c[nH]c2ccccc12 | 73.5 | inactive | > 50% | Active | 30.4 | > 35 | 42.8 | 92.8 | 69.1 | – | – | – | – | – | – | – | – |
| CC(=O)NC(CCc1ccc(Cl)c(Cl)c1)c1cccc(O)c(=O)c1 (configuration not stated) | 34.5 | > 50% | inactive | > 50% | 102 | > 35 | 49.5 | 66.2 | 5.3 | inactive | – | inactive | inactive | – | inactive | – | – |
| NNC(=O)CCc1ccc2ccc3ccccc3c2c1 | 80.2 | inactive | inactive | – | 80.5 | > 35 | 93.1 | 92.9 | 75.1 | – | – | – | – | – | – | – | – |
| O=C1C(C(O)c2ccccc2)CCCC1C(O)c1ccccc1 (configuration not stated) | 152 | inactive | inactive | – | 81.1 | > 35 | 77.9 | 132 | 103 | – | – | – | – | – | – | – | – |
